According to patent US20210292417A1, “HISTAMINE DIHYDROCHLORIDE COMBINATIONS AND USES THEREOF” (Immune Pharmaceuticals LTD., priority 2016, published 2021):

What was measured:
[1] = test system: NK cells and CD8+ T cells co-cultured with CD14+ CMML cells; assay: CMML cell-induced lymphocyte cell death, overnight co-culture; type: cell-based, human; settings: DPI 3 μM; for CMML-induced lymphocyte apoptosis / cell death: NK cells and CD8+ T cells, HDC 100 μM, catalase 200U/ml, PJ34 0.5 μM
Method: (§1) Lymphocyte cell death. Isolated lymphocyte subsets were co-cultured overnight with primary leukemic monocytes from CMML patients with or without NOX2 inhibitors or other anti-oxidative compounds at 37° C. in 5% CO2. Lymphocyte cell death was assessed by flow cytometry after staining with a LIVE/DEAD® fixable dead cell stain (Life Technologies). In receptor expression assays, purified NK cells where co-cultured overnight with monocytes in the presence or absence of the PARP-1 inhibitor PJ34 ([…]). The following antibodies were used for receptor expression assessment: NKp46-PE (clone: 9E2) and DNAM-1-PE-Cy7 (clone: DX11) from Miltenyi Biotec. NKp80-APC (clone: 4A4.D10) and CD16-BV605 (clone: 3G8) from BD Pharmingen.
Subsets of CD8+ T cells were stained and sorted on a 3-laser […] II flow cytometer (BD Biosciences). The following antibodies were used to distinguish the T cell populations: CD3-Pacific Blue (clone: S4.1) from Life technologies. CD8-APC-H7 (clone: SK1), CD45RA-APC (clone: HI100), CD45RO-PE (clone: UCHL1) and CCR7-PE-Cy7 (clone: G043H7) all from BD Pharmingen. CD8+ T cell subsets were further defined as follows: naive T cells (TN) as CD45RA CCR7+, T central memory cells (TCM) as CD45ROCCR7+, T effector memory cells (TEM) as CD45ROCCR7^− and T effector cells (TEff) as CD45RACCR7^−.

[2] = test system: EL-4 thymoma cell line; assay: EL-4 thymoma tumor growth in mice; type: in vivo, mouse; settings: EL-4-bearing C57BL/6J mice; 1.5 mg histamine dihydrochloride i.p. three times per week; 240 μg each antibody i.p. days 3, 6 and 10
Method: The EL-4 thymoma cell line (provided by Dr. Ingo Schmitz, Otto-von-Guericke-University, Magdeburg, Germany) was cultured in DMEM medium (Sigma, Stockholm, Sweden) supplemented with 10% fetal calf serum, 100 U/ml penicillin, 100 μg/ml streptomycin and 2 mM L-glutamine, as described in […]. et al. The Journal of Immunology, volume 194, no. 10, pp. 5014-5021. C57BL/6J mice (6-8 weeks old, purchased from Charles River Laboratories, Sulzfeld, Germany) were inoculated subcutaneously with 1.75-2×10^5 EL-4 tumor cells and treated with saline (control) or 1.5 mg histamine dihydrochloride (purchased from Sigma-Aldrich, Stockholm, Sweden) diluted in saline, by intraperitoneal injections three times per week starting one day before inoculation of cells. Two-hundred forty μg of an antibody against the programmed cell death-1 receptor (anti-mouse PD1, clone RMP1-14, referred to as a-PD1) and 240 μg of an antibody against the programmed death-ligand 1 (anti-mouse PD-L1, clone 10F.9G2, referred to as α-PDL1) (both purchased from BioXcell, West Lebanon, N.H., USA, catalogue numbers BE0146 and BE0101, respectively) were administrated by intraperitoneal injections three, six and ten days after tumor inoculation. Tumors were measured manually every 2-3 days. Tumor size was calculated as length× width.

[3] = test system: CD14+ CMML cells; assay: Extracellular ROS production by isoluminol-enhanced chemiluminescence; type: cell-based, human; settings: FACS-sorted CD14+ CMML cells stimulated with fMLF; HDC 50 or 100 μM
Method: ROS production. The extracellular ROS production of primary CMML cells was measured by isoluminol-enhanced chemiluminescence as described. In brief, 2×10^5 cells were added to 96-well plates in the presence of isoluminol (10 μg/ml) and horseradish peroxidase (HRP; 4U/ml) and stimulated by the NOX2 inducer N-formyl-methionyl-leucyl-phenylalanine (fMLF; 0.1 μM). Light emission was recorded using a FLUOstar Omega platereader (BMG Labtech).

[4] = test system: CD14+ CMML cells; assay: NK cell degranulation against primary CMML cells; type: cell-based, human; settings: IL-2-stimulated NK cells; lintuzumab 1 μg/ml; HDC 100 μM added to lintuzumab
Method: Assays of NK cell degranulation and ADCC. NK cell degranulation and cytotoxicity against patient-derived, malignant monocytes were assessed in experiments using lintuzumab (Abbvie, Stockholm, Sweden), a humanized anti-CD33 antibody. NK cells from healthy donors were co-incubated with monocytes, labeled with CellTrace violet stain (Life Technologies), in the presence of anti-CD107a-PE-Cy7 antibody (BD Pharmingen) and anti-oxidative compounds for four hours at 37° C. and 5% CO2. Thereafter, the cells were stained with LIVE/DEAD® fixable dead cell stain (Life Technologies) and assessed for lysis of monocytes and NK cell degranulation by flow cytometry. For culture experiments, cytotoxicity assays and confocal microscopy, Iscoves' modified Dulbecco minimum essential medium (IDMEM) supplemented with 10% human AB+ serum was used.

[5] = test system: NK cells; assay: NK cell receptor expression after exposure to PJ34; type: cell-based, human; settings: PJ34 in the absence of ROS-producing cells
Method: as §1

[6] = target: H2R (Homo sapiens, UniProt P25021); settings: thioether group replaced by an ether; cited from earlier work
H2R, sequence (P25021 whole entry, species assumed): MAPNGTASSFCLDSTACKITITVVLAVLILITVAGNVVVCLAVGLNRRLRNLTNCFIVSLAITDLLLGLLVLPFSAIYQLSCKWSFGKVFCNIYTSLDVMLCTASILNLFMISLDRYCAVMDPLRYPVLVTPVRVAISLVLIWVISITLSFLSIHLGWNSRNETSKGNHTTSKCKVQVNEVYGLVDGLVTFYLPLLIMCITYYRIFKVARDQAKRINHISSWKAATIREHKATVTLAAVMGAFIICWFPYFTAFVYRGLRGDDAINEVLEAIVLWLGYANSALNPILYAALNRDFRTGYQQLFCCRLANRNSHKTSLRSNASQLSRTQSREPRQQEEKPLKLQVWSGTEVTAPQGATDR

| Compound | CMML-induced lymphocyte apoptosis / cell death [1] | NK cell degranulation response [4] | other results |
| --- | --- | --- | --- |
| catalase | prevented |  |  |
| c1ccc2c(c1)[I+]c1ccccc1-2 [DPI, diphenylene iodonium chloride] | prevented |  | CMML cell-induced apoptosis of sorted CD8+ T cell subsets (TN, TCM, TEM, Teff) ([1]; ratio 1:1, overnight): efficiently rescued all T cell subsets |
| Cl.Cl.NCCc1c[nH]cn1 [HDC, histamine dihydrochloride] | prevented | further enhanced | tumor growth [2]: significantly reduced tumor growth rate; ROS production [3]: significantly suppressed |
| lintuzumab: a humanized anti-CD33 antibody |  | significantly augmented |  |
| CN(C)CC(=O)Nc1ccc2[nH]c(=O)c3ccccc3c2c1 [PJ34] | rescued |  | NK cell receptor expression [5]: No down-regulation |
| CNC(=C[N+](=O)[O-])NCCOCc1ccc(CN(C)C)o1 [AH202399AA] |  |  | reduction of affinity at H2R relative to ranitidine [6]: > 50 fold |
